Results on twelve compounds are retold here after patent US20200369728A1, “PEPTIDOMIMETIC MACROCYCLES AND USES THEREOF” (Aileron Therapeutics, Inc., priority 2015, published 2020).

Bridge positions count the residues as written; N and C are the ends. Square brackets hold non-standard residues; d marks the D form. Peptide text beside a SMILES is read from it. R8 = C=CCCCCCC[C@@](C)(N)C(=O)O; S5 = C=CCCC[C@](C)(N)C(=O)O; Aib = CC(C)(N)C(=O)O A value given as a limit tells only on which side of the number the result lay.

The subject of assay [1] is RKO. Kind of assay: Cell viability assay (MTT), RKO. The following applies: read-out: RKO EC50 (72 h).
Assay [2] concerns Caspase 3. Briefly: Caspase 3 detection assay in SJSA1 cells. Conditions: SJSA1, 48 h, Caspase 3 activation over DMSO-treated cells. The class given is cell-based.

For the compound `CCCC[C@H](NC(=O)[C@H](C)NC(=O)[C@H](C)NC(=O)[C@]1(C)CCC/C=C/CCCCCC[C@@](C)(NC(=O)[C@H](Cc2ccccc2)NC(=O)[C@@H](NC(=O)[C@H](CC(C)C)NC(C)=O)[C@@H](C)O)C(=O)N[C@@H](C)C(=O)N[C@@H](Cc2ccc(O)cc2)C(=O)N[C@@](C)(Cc2c[nH]c3ccccc23)C(=O)N[C@@H](C)C(=O)N[C@@H](CCC(N)=O)C(=O)N[C@@H](CC(C)C)C(=O)N1)C(=O)N[C@@H](C)C(N)=O` [compound 388], the 50% effective concentration (EC50) (commonly the concentration that produces a half-maximal response) in assay [1] is 15 to 30 µM. With `CC[C@H](C)[C@H](NC(=O)[C@H](C)NC(=O)[C@H](C)NC(=O)[C@]1(C)CCCC=CCCCCCC[C@@](C)(NC(=O)[C@H](Cc2ccccc2)NC(=O)[C@@H](NC(=O)[C@H](CC(C)C)NC(=O)CN(C)C)[C@@H](C)O)C(=O)N[C@@H](CCC(=O)O)C(=O)N[C@@H](Cc2ccc(C(=O)O)cc2)C(=O)N[C@@H](Cc2c[nH]c3ccccc23)C(=O)N[C@@H](C)C(=O)N[C@@H](CCC(N)=O)C(=O)N[C@@H](CC2CCC2)C(=O)N1)C(=O)N[C@H](C)C(N)=O` (single isomer, unassigned) [compound 440], the EC50 in assay [1] fell in the range of 15 to 30 µM. With `CC(=O)N[C@@H](CC(C)C)C(=O)N[C@H](C(=O)N[C@@H](Cc1ccccc1)C(=O)N[C@]1(C)CCCCCCC=CCCC[C@@](C)(C(=O)N[C@@H](CO)C(=O)N[C@@H](C)C(=O)NC(C)(C)C(N)=O)NC(=O)[C@H](CC(C)C)NC(=O)[C@H](CCC(N)=O)NC(=O)[C@H](C)NC(=O)[C@H](Cc2c[nH]c3ccccc23)NC(=O)[C@H](Cc2ccc(O)cc2)NC(=O)[C@H](C)NC1=O)[C@@H](C)O` [compound 10] (Ac-LTF[R8]AYWAQL[S5]SA[Aib]-NH2; staple 4-11), the half-maximal effective concentration (EC50) in assay [1] lay in the range of 5 to 15 µM. In addition, the “caspase 0.3 μM” value in assay [2] (0.3 μM) is on record as 1. The “caspase 3 μM” value in assay [2] (3 μM) turned out to be 1. The “caspase 10 μM” value in assay [2] (10 μM) turned out to be 17. Further, the “caspase 30 μM” value in assay [2] (30 μM) was 32. With `CC(C)C[C@H](NC(=O)CN(C)C)C(=O)N[C@H](C(=O)N[C@@H](Cc1ccccc1)C(=O)N[C@]1(C)CCCCCCC=CCCC[C@@](C)(C(=O)N[C@@H](CO)C(=O)N[C@@H](C)C(=O)N[C@@H](C)C(N)=O)NC(=O)[C@H](CC2CCC2)NC(=O)[C@H](CCC(N)=O)NC(=O)[C@H](C)NC(=O)[C@H](Cc2c[nH]c3ccccc23)NC(=O)[C@H](Cc2ccc(O)cc2)NC(=O)[C@H](CCC(=O)O)NC1=O)[C@@H](C)O` [compound 435], the EC50 in assay [1] fell in the range of 15 to 30 µM.

Consider `CC(C)C[C@H](NC(=O)CN(C)C)C(=O)N[C@H](C(=O)N[C@@H](Cc1ccccc1)C(=O)N[C@]1(C)CCCCCCC=CCCC[C@@](C)(C(=O)N[C@@H](C)C(=O)N[C@@H](C)C(=O)N[C@@H](C)C(=O)N[C@@H](C)C(=O)N[C@@H](C)C(=O)N[C@H](C)C(N)=O)NC(=O)[C@H](CC(C)C)NC(=O)[C@H](CCC(N)=O)NC(=O)[C@H](C)NC(=O)[C@H](Cc2c[nH]c3ccccc23)NC(=O)[C@H](Cc2ccc(O)cc2)NC(=O)[C@H](C)NC1=O)[C@@H](C)O` (single isomer, unassigned) [compound 436], for which the concentration for a half-maximal effect (EC50) in assay [1] is less than 5 µM. As to `CC(C)C[C@H](NC(=O)CN(C)C)C(=O)N[C@H](C(=O)N[C@@H](Cc1ccccc1)C(=O)N[C@]1(C)CCCCCC/C=C/CCC[C@@](C)(C(=O)N[C@@H](C)C(=O)N[C@@H](C)C(=O)N[C@@H](C)C(=O)N[C@@H](C)C(=O)N[C@@H](C)C(=O)N[C@H](C)C(N)=O)NC(=O)[C@H](CC(C)C)NC(=O)[C@H](CCC(N)=O)NC(=O)[C@H](C)NC(=O)[C@H](Cc2c[nH]c3ccccc23)NC(=O)[C@H](Cc2ccc(O)cc2)NC(=O)[C@H](C)NC1=O)[C@@H](C)O` [compound 437], the EC50 in assay [1] was less than 5 µM. On the same count and under the same terms, with `CCCC[C@H](NC(=O)[C@H](C)NC(=O)[C@H](C)NC(=O)[C@]1(C)CCCC=CCCCCCC[C@@](C)(NC(=O)[C@H](Cc2ccccc2)NC(=O)[C@@H](NC(=O)[C@H](CC(C)C)NC(=O)CN(C)C)[C@@H](C)O)C(=O)N[C@@H](C)C(=O)N[C@@H](Cc2ccc(O)cc2)C(=O)N[C@@H](Cc2c[nH]c3ccccc23)C(=O)N[C@@H](C)C(=O)N[C@@H](CCC(N)=O)C(=O)N[C@@H](CC(C)C)C(=O)N1)C(=O)N[C@@H](C)C(N)=O` (single isomer, unassigned) [compound 442] the figure was less than 5 µM; with `CCCC[C@H](NC(=O)[C@H](C)NC(=O)[C@H](C)NC(=O)[C@]1(C)CCCCCCCCCCC[C@@](C)(NC(=O)[C@H](Cc2ccccc2)NC(=O)[C@@H](NC(=O)[C@H](CC(C)C)NC(C)=O)[C@@H](C)O)C(=O)N[C@@H](C)C(=O)N[C@@H](Cc2ccc(O)cc2)C(=O)N[C@@H](Cc2c[nH]c3ccccc23)C(=O)N[C@@H](C)C(=O)N[C@@H](CCC(N)=O)C(=O)N[C@@H](CC(C)C)C(=O)N1)C(=O)N[C@@H](C)C(N)=O` [compound 444], less than 5 µM. Turning to `CCCC[C@H](NC(=O)[C@H](C)NC(=O)[C@H](C)NC(=O)[C@]1(C)CCCC=CCCCCCC[C@@](C)(NC(=O)[C@H](Cc2ccccc2)NC(=O)[C@@H](NC(=O)[C@H](CC(C)C)NC(C)=O)[C@@H](C)O)C(=O)N[C@@H](C)C(=O)N[C@@H](Cc2ccc(O)cc2)C(=O)N(C)[C@@H](Cc2c[nH]c3ccccc23)C(=O)N[C@@H](C)C(=O)N[C@@H](CCC(N)=O)C(=O)N[C@@H](CC(C)C)C(=O)N1)C(=O)N[C@@H](C)C(N)=O` (single isomer, unassigned) [compound 386], in assay [1], the 50% effective concentration (EC50) was less than 5 µM.

`CCCC[C@H](NC(=O)[C@H](C)NC(=O)[C@H](C)NC(=O)[C@]1(C)CCCC=CCCCCCC[C@@](C)(NC(=O)[C@H](Cc2ccccc2)NC(=O)[C@@H](NC(=O)[C@H](CC(C)C)NC(C)=O)[C@@H](C)O)C(=O)N[C@@H](C)C(=O)N[C@@H](Cc2ccc(O)cc2)C(=O)N[C@@H](Cc2c[nH]c3ccccc23)C(=O)NC(C)(C)C(=O)N[C@@H](CCC(N)=O)C(=O)N[C@@H](CC(C)C)C(=O)N1)C(=O)N[C@@H](C)C(N)=O` (single isomer, unassigned) [compound 390]: the concentration giving a half-maximal response (EC50) in assay [1] was less than 5 µM. Still for that read-out and setting: to `CSCC[C@H](NC(=O)[C@H](C)NC(=O)[C@H](CO)NC(=O)[C@]1(C)CCCC=CCCCCCC[C@@](C)(NC(=O)[C@H](Cc2ccccc2)NC(=O)[C@@H](NC(=O)[C@H](CC(C)C)NC(C)=O)[C@@H](C)O)C(=O)N[C@@H](C)C(=O)N[C@@H](Cc2ccc(O)cc2)C(=O)N[C@@H](Cc2c[nH]c3ccccc23)C(=O)N[C@@H](C)C(=O)N[C@@H](CCC(N)=O)C(=O)N[C@@H](CC(C)C)C(=O)N1)C(N)=O` [compound 5] (Ac-LTF[R8]AYWAQL[S5]SAM-NH2; staple 4-11) belongs less than 5 µM.

Regarding `CC(=O)N[C@@H](CC(C)C)C(=O)N[C@H](C(=O)N[C@@H](Cc1ccccc1)C(=O)N[C@]1(C)CCCCCCCCCCC[C@@](C)(C(=O)N[C@@H](C)C(=O)N[C@@H](C)C(=O)N[C@@H](C)C(=O)N[C@@H](C)C(=O)N[C@@H](C)C(=O)N[C@H](C)C(N)=O)NC(=O)[C@H](CC(C)C)NC(=O)[C@H](CCC(N)=O)NC(=O)[C@H](C)NC(=O)[C@H](Cc2c[nH]c3ccccc23)NC(=O)[C@H](Cc2ccc(O)cc2)NC(=O)[C@H](CCC(=O)O)NC1=O)[C@@H](C)O` [compound 445], the EC50 in assay [1] lay within 5 to 15 µM.
